Measured values from patent US9688684B2, “Substituted tetrazolo[1,5-a]pyrazines as ROR-gamma inhibitors” (Merck Patent GmbH, priority 2013, dated 2017).

Key:
[1] = molecular target: human RORγ ligand binding domain (GST-hRORγ-LBD) (Homo sapiens (Human), UniProt P51449); assay: TR-FRET assay (biochemical cofactor interaction assay, GST-hRORγ-LBD / TRAP220 peptide)
Excerpt: RORγ is an orphan member of the nuclear receptor (NR) family displaying constitutive activity. The activity of nuclear receptors can be modulated by ligand-induced cofactor protein interactions. For example, agonist binding leads to recruitment of coactivator protein, and antagonist binding either blocks coactivator interaction or facilitates the recruitment of corepressors. […] The conformational change induced by ligand binding influences interactions with LXXLL motif peptides.
RORγ (t) is a thymus-specific isoform of RORγ which is widely expressed. It shares the same ligand binding domain (LBD) sequence with RORγ. Thus, a screen using the LBD will yield antagonists targeting both RORγ and RORγt.
In order to identify compounds which block activity of the human nuclear receptor Retinoid-related Orphan Receptor gamma (RORγ) a biochemical cofactor interaction assay based on the TR-FRET principle is performed. […] The ligand-binding domain (LBD) of RORγ is expressed as fusion protein with GST in […] cells using the vector pDEST15. Cells are lysed by lysozyme-treatment and sonication, and the fusion proteins purified over glutathione sepharose (Pharmacia) according to the manufacturers instructions. The strong constitutive interaction is disrupted upon binding of functional antagonists. The strength of the interaction is monitored by TR-FRET between streptavidine APC interacting with the biotinylated peptide and Europium-labelled Anti-GST.

[2] = molecular target: RORγ Ligand binding domain (RORγ-LBD, aa 238-497, NP_001001523) (Homo sapiens (Human), UniProt P51449); assay: ROR γ GAI4 Reporter Gene Assay (Mammalian one-hybrid, M1H) in 293T cells; format: cell-based
Sequence of RORγ Ligand binding domain (RORγ-LBD, aa 238-497, NP_001001523) (P51449 259-518): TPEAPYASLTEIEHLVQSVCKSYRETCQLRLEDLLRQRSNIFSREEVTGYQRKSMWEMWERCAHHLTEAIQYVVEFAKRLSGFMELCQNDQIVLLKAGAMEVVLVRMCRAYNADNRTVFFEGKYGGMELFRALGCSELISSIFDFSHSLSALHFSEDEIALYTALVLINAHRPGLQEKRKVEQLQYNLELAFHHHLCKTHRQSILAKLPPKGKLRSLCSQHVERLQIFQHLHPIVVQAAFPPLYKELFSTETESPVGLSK
Excerpt: ROR γ GAI4 Reporter Gene Assay
A Mammalian one-hybrid system is used to perform a cell-based functional transactivation assay for detecting RORγ activity modulators.
The Mammalian-1-Hybrid is derived from the Mammalian-2-Hybrid setup. Whereas in the latter, the binding partners are defined in their role as interaction, transactivation and DNA-binding components, the Mammalian-1-Hybrid makes use of the fact that all mammalian cell types express a set of Nuclear Receptors and their associated cofactors. […] A Gal4 minimal promoter driven luciferase construct (pFR-Luc from Stratagene, containing a synthetic promoter with five tandem repeats of the yeast GAL4 binding sites controlling expression of the Photinus pyralis luciferase gene) is used as reporter. The Gal4-DBD-NR-LBD fusion protein by itself cannot initiate transcription and is dependent on the presence of cofactors present in the cellular system used.
In order to rule out cytotoxic and unspecific transcriptional compound effects a transfection with a firefly luciferase driven by the constitutive CMV promoter is performed in parallel.
After transfection 18 μl complete MEM medium containing 3% charcoal-dextran treated FBS is added as well as 4 μl test compounds (DMSO stocks prediluted in OptiMem (Invitrogen)) followed by incubation for 16-24 h at 37° C., 5% CO2 and 90% rH.
Firefly luciferase activity is measured using the Promega ONE-Glo™ Luciferase Assay System.

Sequence of human RORγ ligand binding domain (GST-hRORγ-LBD) (P51449 269-508): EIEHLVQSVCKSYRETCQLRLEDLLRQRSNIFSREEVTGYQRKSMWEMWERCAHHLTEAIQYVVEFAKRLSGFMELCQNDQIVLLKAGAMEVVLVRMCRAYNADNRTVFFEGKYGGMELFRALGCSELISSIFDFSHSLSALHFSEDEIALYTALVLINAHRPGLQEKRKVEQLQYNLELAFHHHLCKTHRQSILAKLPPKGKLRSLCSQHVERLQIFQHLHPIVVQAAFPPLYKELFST

## Fc1cccc(C2c3nnnn3CCN2Cc2cccs2)c1 (stereo not shown) [Compound 117, 8-(3-Fluoro-phenyl)-7-thiophen-2-ylmethyl-5,6,7,8-tetrahydro-tetrazolo[1,5-a]pyrazine]
[1]
  IC50: 0.99 to 9.9 µM
[2]
  IC50: 9.9 to 40 µM

## CC(C)c1nn(-c2ccccc2)cc1C1c2nnnn2CCN1Cc1cccs1 (single isomer, unassigned) [Compound 61-b, 8-(3-Isopropyl-1-phenyl-1H-pyrazol-4-yl)-7-thiophen-2-ylmethyl-5,6,7,8-tetrahydro-tetrazolo[1,5-a]pyrazine]
[1]
  IC50: 9.9 to 40 µM
[2]
  IC50: 0.99 to 9.9 µM

## Fc1ccccc1C1c2nnnn2CCN1Cc1cccs1 (stereo not shown) [Compound 137, 8-(2-Fluoro-phenyl)-7-thiophen-2-ylmethyl-5,6,7,8-tetrahydro-tetrazolo[1,5-a]pyrazine]
[1]
  IC50: 0.99 to 9.9 µM
[2]
  IC50: 9.9 to 40 µM

## CC(C)c1nn(-c2ccccc2)cc1CN1CCn2nnnc2C1c1cccs1 (stereo not shown) [Compound 48, 7-(3-Isopropyl-1-phenyl-1H-pyrazol-4-ylmethyl)-8-thiophen-2-yl-5,6,7,8-tetrahydro-tetrazolo[1,5-a]pyrazine]
[1]
  IC50: 0.01 to 0.99 µM
[2]
  IC50: 9.9 to 40 µM

## CC(C)(C)c1nn(Cc2ccccc2)cc1C1c2nnnn2CCN1Cc1cccs1 (stereo not shown) [Compound 160, 8-(1-Benzyl-3-tert-butyl-1H-pyrazol-4-yl)-7-thiophen-2-ylmethyl-5,6,7,8-tetrahydro-tetrazolo[1,5-a]pyrazine]
[1]
  IC50: 9.9 to 40 µM
[2]
  IC50: 0.99 to 9.9 µM

## Fc1cc(F)cc(C2c3nnnn3CCN2Cc2ccccc2)c1 (stereo not shown) [Compound 101, 7-Benzyl-8-(3,5-difluoro-phenyl)-5,6,7,8-tetrahydro-tetrazolo[1,5-a]pyrazine]
[1]
  IC50: 0.01 to 0.99 µM
[2]
  IC50: 9.9 to 40 µM

## Cc1cccc(CN2CCn3nnnc3C2c2ccc(F)cc2)c1 (single isomer, unassigned) [Compound 93-a, 8-(4-Fluoro-phenyl)-7-(3-methyl-benzyl)-5,6,7,8-tetrahydro-tetrazolo[1,5-a]pyrazine]
[1]
  IC50: 0.01 to 0.99 µM
[2]
  IC50: 0.99 to 9.9 µM

## Fc1ccc(C2c3nnnn3CCN2Cc2ccccc2)cc1 (stereo not shown) [Compound 102, 7-Benzyl-8-(4-fluoro-phenyl)-5,6,7,8-tetrahydro-tetrazolo[1,5-a]pyrazine]
[1]
  IC50: 0.01 to 0.99 µM
[2]
  IC50: 9.9 to 40 µM

## CCOc1ccc(C2c3nnnn3CCN2Cc2ccc(F)cc2)cc1 (stereo not shown) [Compound 134, 8-(4-Ethoxy-phenyl)-7-(4-fluoro-benzyl)-5,6,7,8-tetrahydro-tetrazolo[1,5-a]pyrazine]
[1]
  IC50: 0.99 to 9.9 µM
[2]
  IC50: 9.9 to 40 µM

## COc1ccc(C2c3nnnn3CCN2Cc2ccc(F)cc2)cc1 (stereo not shown) [Compound 146, 7-(4-Fluoro-benzyl)-8-(4-methoxy-phenyl)-5,6,7,8-tetrahydro-tetrazolo[1,5-a]pyrazine]
[1]
  IC50: 9.9 to 40 µM
[2]
  IC50: 0.99 to 9.9 µM

## Fc1ccc(CN2CCn3nnnc3C2c2cccc(F)c2)cc1 (racemic) [Compound 91, 7-(4-Fluoro-benzyl)-8-(3-fluoro-phenyl)-5,6,7,8-tetrahydro-tetrazolo[1,5-a]pyrazine]
[1]
  IC50: 0.99 to 9.9 µM
[2]
  IC50: 0.01 to 0.99 µM

## Cc1cccc(CN2CCn3nnnc3C2c2cccc(F)c2)c1 (stereo not shown) [Compound 116, 8-(3-Fluoro-phenyl)-7-(3-methyl-benzyl)-5,6,7,8-tetrahydro-tetrazolo[1,5-a]pyrazine]
[1]
  IC50: 0.99 to 9.9 µM
[2]
  IC50: 0.99 to 9.9 µM

## Fc1ccc(C2c3nnnn3CCN2Cc2cccc(Br)c2)cc1 (racemic) [Compound 96, 7-(3-Bromo-benzyl)-8-(4-fluoro-phenyl)-5,6,7,8-tetrahydro-tetrazolo[1,5-a]pyrazine]
[1]
  IC50: 0.01 to 0.99 µM
[2]
  IC50: 0.99 to 9.9 µM

## Fc1ccc(CN2CCn3nnnc3C2c2ccc3c(c2)OCCO3)cc1 (stereo not shown) [Compound 133, 8-(2,3-Dihydro-benzo[1,4]dioxin-6-yl)-7-(4-fluoro-benzyl)-5,6,7,8-tetrahydro-tetrazolo[1,5-a]pyrazine]
[1]
  IC50: 0.99 to 9.9 µM
[2]
  IC50: 9.9 to 40 µM
